ChEMBL document CHEMBL5442334, “ASAP - In vitro safety pharmacology profile” (2024)

Tests used:
Conditions in all cases: Test compound concentration 10.0 uM
[1] = target: 5-hydroxytryptamine receptor 2A (Homo sapiens) (UniProt P28223); assay: SafetyScreen: 5-HT2A Human Serotonin GPCR Binding Agonist Radioligand LeadHunter Assay, catalogue number: 471
[2] = target: Kappa-type opioid receptor (Homo sapiens) (UniProt P41145); assay: SafetyScreen: kappa (KOP) Human Opioid GPCR Binding Agonist Radioligand LeadHunter Assay, catalogue number: 4461
[3] = target: Muscarinic acetylcholine receptor M3 (Homo sapiens) (UniProt P20309); assay: SafetyScreen: M3 Human Acetylcholine (Muscarinic) GPCR Binding Antagonist Radioligand LeadHunter Assay, catalogue number: 95
[4] = target: Beta-1 adrenergic receptor (Homo sapiens) (UniProt P08588); assay: SafetyScreen: beta1 Human Adrenoceptor GPCR Binding Agonist Radioligand LeadHunter Assay, catalogue number: 18
[5] = target: Sodium-dependent serotonin transporter (Homo sapiens) (UniProt P31645); assay: SafetyScreen: SERT Human Serotonin Transporter Binding Antagonist Radioligand LeadHunter Assay, catalogue number: 439
[6] = target: Beta-2 adrenergic receptor (Homo sapiens) (UniProt P07550); assay: SafetyScreen: beta2 Human Adrenoceptor GPCR Binding Antagonist Radioligand LeadHunter Assay, catalogue number: 20
[7] = target: T1, Endothelin-1 receptor (Homo sapiens) (UniProt P25101); assay: SafetyScreen: ETA Human Endothelin GPCR Binding Agonist Radioligand LeadHunter Assay, catalogue number: 54
T1 sequence (whole entry): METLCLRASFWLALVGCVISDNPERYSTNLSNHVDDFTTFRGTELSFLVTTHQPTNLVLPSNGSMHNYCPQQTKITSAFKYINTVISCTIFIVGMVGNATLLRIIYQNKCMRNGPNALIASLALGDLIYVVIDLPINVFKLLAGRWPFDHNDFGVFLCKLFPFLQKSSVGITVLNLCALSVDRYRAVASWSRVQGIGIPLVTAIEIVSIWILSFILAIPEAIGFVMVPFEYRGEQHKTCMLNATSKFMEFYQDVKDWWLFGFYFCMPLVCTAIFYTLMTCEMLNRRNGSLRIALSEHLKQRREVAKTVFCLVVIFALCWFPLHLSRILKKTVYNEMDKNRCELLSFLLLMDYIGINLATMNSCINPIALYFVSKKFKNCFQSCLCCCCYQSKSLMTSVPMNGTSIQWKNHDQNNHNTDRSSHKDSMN

[8] = target: Glutamate NMDA receptor (Rattus norvegicus) (UniProt P35439+Q00959+Q00960+Q00961+Q62645+Q8VHN2+Q9R1M7); assay: SafetyScreen: Glutamate (NMDA, Non-Selective) Rat Ion Channel [3H] CGP-39653 Binding LeadHunter Assay, catalogue number: 66; format: protein-complex assay
[9] = target: Sodium-dependent noradrenaline transporter (Homo sapiens) (UniProt P23975); assay: SafetyScreen: NET Human Norepinephrine Transporter Binding Antagonist Radioligand LeadHunter Assay, catalogue number: 355
[10] = target: GABA-A receptor; anion channel (Rattus norvegicus) (UniProt O09028+P15431+P18506+P18508+P19969+P20236+P23574+P23576+P28471+P28473+P30191+P62813+P63079+P63138+Q91ZM7+Q9ES14); assay: SafetyScreen: GABAA (Non-Selective) Rat Ion Channel [3H] Flunitrazepam Binding Agonist Radioligand LeadHunter Assay, catalogue number: 28; format: protein-complex assay
[11] = target: T2, Muscarinic acetylcholine receptor M2 (Homo sapiens) (UniProt P08172); assay: SafetyScreen: M2 Human Acetylcholine (Muscarinic) GPCR Binding Antagonist Radioligand LeadHunter Assay, catalogue number: 93
T2 sequence (whole entry): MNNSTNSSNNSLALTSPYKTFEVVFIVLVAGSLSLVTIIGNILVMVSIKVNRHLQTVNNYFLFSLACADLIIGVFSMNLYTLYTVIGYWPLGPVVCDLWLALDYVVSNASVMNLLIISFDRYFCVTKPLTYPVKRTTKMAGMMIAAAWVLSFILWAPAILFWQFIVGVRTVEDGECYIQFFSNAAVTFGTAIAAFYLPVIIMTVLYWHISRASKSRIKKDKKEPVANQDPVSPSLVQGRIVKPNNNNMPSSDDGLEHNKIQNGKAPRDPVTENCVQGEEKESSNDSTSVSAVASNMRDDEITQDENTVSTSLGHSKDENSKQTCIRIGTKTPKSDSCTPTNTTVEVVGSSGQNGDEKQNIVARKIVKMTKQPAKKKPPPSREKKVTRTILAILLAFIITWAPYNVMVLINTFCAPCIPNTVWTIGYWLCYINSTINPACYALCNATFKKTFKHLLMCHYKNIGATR

[12] = target: T3, Androgen receptor (Homo sapiens) (UniProt P10275); assay: SafetyScreen: AR Human Androgen NHR Binding Agonist Radioligand LeadHunter Assay, catalogue number: 933
T3 sequence (whole entry): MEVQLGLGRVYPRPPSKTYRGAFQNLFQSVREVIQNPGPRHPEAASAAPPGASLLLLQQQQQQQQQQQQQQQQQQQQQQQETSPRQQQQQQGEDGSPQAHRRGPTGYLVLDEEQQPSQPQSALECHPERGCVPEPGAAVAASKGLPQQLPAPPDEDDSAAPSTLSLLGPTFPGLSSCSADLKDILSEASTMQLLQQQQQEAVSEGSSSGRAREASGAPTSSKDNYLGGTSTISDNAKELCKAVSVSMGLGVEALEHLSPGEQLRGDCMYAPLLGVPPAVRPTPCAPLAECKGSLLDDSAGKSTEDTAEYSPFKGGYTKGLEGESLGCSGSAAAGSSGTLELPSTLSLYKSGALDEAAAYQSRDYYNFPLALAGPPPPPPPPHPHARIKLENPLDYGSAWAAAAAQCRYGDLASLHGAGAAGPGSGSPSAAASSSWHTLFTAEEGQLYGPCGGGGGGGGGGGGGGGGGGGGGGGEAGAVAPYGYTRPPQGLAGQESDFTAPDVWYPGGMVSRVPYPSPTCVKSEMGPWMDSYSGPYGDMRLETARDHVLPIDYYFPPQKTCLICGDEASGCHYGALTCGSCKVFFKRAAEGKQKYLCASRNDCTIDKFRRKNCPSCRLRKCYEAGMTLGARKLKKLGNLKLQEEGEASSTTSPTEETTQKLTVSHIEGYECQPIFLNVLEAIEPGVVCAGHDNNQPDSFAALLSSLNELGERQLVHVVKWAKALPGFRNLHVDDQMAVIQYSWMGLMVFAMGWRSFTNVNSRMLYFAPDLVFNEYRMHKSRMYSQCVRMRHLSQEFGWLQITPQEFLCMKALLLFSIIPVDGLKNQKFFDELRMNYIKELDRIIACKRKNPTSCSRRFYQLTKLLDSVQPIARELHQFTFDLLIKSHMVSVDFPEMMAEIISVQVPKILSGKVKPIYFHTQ

Sequence of Muscarinic acetylcholine receptor M3 (Homo sapiens) (P20309 whole entry, looked up): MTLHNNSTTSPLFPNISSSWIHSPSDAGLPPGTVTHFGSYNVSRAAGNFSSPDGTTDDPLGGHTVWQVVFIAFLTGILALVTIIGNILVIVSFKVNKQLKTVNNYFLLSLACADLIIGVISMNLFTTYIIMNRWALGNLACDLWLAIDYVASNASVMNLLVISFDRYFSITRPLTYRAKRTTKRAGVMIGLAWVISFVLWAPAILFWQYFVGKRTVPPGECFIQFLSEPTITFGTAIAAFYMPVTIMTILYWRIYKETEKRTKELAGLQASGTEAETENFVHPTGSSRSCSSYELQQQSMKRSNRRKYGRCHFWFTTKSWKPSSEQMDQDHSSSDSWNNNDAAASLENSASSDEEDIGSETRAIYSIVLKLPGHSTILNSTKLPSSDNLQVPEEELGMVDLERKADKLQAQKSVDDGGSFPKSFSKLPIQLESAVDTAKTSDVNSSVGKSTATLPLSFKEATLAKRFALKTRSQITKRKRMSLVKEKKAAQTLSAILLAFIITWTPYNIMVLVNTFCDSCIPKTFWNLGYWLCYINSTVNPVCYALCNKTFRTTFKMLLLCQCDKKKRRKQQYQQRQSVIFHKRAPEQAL
Sequence of Sodium-dependent serotonin transporter (Homo sapiens) (P31645 whole entry, looked up): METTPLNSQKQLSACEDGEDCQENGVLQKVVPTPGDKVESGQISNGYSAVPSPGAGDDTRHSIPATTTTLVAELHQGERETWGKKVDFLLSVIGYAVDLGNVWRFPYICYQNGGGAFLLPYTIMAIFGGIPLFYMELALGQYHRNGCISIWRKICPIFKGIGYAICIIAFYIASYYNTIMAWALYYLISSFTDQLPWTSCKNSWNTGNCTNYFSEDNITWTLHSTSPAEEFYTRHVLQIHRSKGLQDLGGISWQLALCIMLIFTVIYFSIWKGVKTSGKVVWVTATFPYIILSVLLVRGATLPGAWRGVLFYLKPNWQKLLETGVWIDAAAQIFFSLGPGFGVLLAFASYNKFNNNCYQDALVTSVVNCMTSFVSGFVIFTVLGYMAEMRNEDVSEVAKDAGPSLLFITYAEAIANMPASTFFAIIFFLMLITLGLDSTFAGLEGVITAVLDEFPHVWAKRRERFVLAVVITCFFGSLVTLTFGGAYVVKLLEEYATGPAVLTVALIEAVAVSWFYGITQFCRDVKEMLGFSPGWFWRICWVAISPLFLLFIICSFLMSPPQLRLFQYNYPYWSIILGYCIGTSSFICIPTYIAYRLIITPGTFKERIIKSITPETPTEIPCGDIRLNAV
Sequence of Sodium-dependent noradrenaline transporter (Homo sapiens) (P23975 whole entry): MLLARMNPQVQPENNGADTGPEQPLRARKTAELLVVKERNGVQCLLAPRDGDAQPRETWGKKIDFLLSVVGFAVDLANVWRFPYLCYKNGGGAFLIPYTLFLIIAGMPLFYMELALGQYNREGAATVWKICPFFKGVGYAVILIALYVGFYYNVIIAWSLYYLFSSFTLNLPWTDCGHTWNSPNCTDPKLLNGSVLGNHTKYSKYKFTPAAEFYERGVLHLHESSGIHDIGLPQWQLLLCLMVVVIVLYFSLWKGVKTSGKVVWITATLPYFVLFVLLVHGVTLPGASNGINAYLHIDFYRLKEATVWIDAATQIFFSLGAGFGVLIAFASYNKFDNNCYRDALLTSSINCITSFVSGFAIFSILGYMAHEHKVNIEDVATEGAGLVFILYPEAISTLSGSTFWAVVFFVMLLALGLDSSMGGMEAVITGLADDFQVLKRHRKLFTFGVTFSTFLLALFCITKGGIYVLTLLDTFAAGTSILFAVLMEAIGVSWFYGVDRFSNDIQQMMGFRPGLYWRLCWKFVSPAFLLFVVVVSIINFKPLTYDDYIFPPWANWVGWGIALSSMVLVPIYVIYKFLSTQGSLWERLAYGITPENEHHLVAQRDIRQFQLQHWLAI
Sequence of Beta-1 adrenergic receptor (Homo sapiens) (P08588 whole entry, looked up): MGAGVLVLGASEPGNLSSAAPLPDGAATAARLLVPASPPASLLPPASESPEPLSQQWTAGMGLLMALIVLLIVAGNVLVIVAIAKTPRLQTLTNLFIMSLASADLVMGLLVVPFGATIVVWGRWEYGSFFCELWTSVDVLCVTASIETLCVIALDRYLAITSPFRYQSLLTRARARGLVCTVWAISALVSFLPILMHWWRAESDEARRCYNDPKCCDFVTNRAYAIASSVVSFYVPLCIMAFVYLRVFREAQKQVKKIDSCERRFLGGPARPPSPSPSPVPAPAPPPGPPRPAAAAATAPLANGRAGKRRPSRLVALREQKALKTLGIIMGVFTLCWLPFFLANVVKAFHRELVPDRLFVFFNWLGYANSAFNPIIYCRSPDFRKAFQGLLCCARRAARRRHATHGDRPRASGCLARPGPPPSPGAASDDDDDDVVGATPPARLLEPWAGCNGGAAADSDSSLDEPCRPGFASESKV
Sequence of 5-hydroxytryptamine receptor 2A (Homo sapiens) (P28223 whole entry): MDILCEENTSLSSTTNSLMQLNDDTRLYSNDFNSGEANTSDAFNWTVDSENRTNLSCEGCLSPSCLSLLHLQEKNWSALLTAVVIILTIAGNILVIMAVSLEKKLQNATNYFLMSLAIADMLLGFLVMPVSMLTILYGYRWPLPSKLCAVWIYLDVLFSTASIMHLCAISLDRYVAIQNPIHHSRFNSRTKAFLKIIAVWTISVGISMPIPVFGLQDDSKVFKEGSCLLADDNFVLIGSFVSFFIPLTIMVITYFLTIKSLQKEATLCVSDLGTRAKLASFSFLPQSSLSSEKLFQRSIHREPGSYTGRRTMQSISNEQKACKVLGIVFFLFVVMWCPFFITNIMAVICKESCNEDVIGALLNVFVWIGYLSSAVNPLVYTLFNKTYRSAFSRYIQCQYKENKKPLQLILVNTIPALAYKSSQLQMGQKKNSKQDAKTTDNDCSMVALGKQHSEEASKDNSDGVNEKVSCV
Sequence of Kappa-type opioid receptor (Homo sapiens) (P41145 whole entry): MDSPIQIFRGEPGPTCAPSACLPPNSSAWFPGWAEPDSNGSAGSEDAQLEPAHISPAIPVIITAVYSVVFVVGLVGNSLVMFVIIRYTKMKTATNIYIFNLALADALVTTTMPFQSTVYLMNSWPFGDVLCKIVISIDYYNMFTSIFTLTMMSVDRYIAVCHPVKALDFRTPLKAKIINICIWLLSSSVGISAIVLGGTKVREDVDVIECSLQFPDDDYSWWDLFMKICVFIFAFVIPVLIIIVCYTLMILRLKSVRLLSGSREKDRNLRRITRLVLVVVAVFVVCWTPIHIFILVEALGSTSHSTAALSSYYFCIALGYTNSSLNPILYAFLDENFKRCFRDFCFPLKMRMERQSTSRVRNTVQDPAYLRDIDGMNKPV
Sequence of Beta-2 adrenergic receptor (Homo sapiens) (P07550 whole entry, looked up): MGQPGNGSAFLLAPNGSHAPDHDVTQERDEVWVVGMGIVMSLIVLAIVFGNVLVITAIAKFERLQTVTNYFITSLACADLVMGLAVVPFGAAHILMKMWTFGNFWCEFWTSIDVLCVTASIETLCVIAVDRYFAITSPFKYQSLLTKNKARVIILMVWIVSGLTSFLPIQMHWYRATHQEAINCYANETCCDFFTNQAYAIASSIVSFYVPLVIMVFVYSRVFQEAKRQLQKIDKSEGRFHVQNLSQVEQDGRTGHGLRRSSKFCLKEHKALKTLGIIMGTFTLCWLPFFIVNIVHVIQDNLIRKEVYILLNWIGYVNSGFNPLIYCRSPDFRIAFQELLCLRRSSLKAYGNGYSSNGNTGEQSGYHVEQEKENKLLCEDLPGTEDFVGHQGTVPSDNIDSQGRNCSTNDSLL

Row | SMILES | inhibition [1] [%] | inhibition [2] [%] | inhibition [3] [%] | inhibition [4] [%] | inhibition [5] [%] | inhibition [6] [%] | inhibition [7] [%] | inhibition [8] [%] | inhibition [9] [%] | inhibition [10] [%] | inhibition [11] [%] | inhibition [12] [%]
1 | CC(C)[C@@H](Nc1ncnc2[nH]c(C(=O)N[C@@H]3CCN(C)C3)cc12)c1ccc2c(c1)S(=O)(=O)CCC2 | 1 | 78 | -9 | 4 | 1 | -3 | -6 | 1 | -1 | 38 | 52 | -5
2 | Cc1nn(C)cc1-c1cc2c(N[C@H](c3ccc4c(c3)S(=O)(=O)CCC4)C(C)C)ncnc2[nH]1 | 51 | 45 | -9 | 1 | -4 | -7 | -4 | -2 | -2 | 29 | 5 | 6
3 | CC(C)[C@@H](Nc1ncnc2[nH]c(-c3cnn(C)c3C#N)cc12)c1ccc2c(n1)OCCO2 | 14 | 56 | 1 | -2 | 9 | 3 | 5 | 1 | 4 | 8 | 15 | 12
4 | Cn1ncc(-c2cc3c(N[C@@H](c4ccc5c(n4)OCCO5)C(C)(C)C)ncnc3[nH]2)c1C#N | -2 | 33 | -8 | 11 | 2 | 4 | 9 | 11 | 27 | -5 | 25 | 5
5 | CNCc1cc(-c2cc3c(N[C@@H](c4ccc5c(c4)S(=O)(=O)CCC5)C(C)C)ncnc3[nH]2)co1 | 29 | 57 | 5 | -4 | 24 | 6 | -1 | -1 | 39 | 28 | 52 | 10
6 | COc1ccc([C@H](Cc2nnn[nH]2)NC(=O)c2ncnc3[nH]ccc23)cc1 | -4 | 2 | – | -3 | -1 | -6 | 2 | 9 | -5 | 0 | – | -2
7 | C[C@H](C(=O)O)[C@@H](NC(=O)c1ncnc2[nH]ccc12)c1ccc(Br)cc1 | 1 | 2 | -9 | -5 | 0 | -8 | -2 | 4 | -6 | -4 | -4 | 12
8 | CNC(=O)Cn1cc(-c2cc3c(N[C@@H](c4ccc5c(c4)S(=O)(=O)CCC5)C(C)C)ncnc3[nH]2)cn1 | 12 | 21 | -9 | 5 | -3 | 0 | -4 | -1 | -7 | 35 | 7 | 0
9 | CC(C)[C@H](Nc1ncnc2[nH]ccc12)c1ccc2c(c1)S(=O)(=O)CCC2 | 12 | 84 | 5 | 11 | 0 | -1 | -1 | -1 | -3 | 4 | 34 | 0
10 | CC(C)[C@H](Nc1ncnc2[nH]c(-c3cnn(C)c3C#N)cc12)c1ccc2c(n1)OCCO2 | 15 | 31 | – | 11 | 4 | 3 | 42 | 2 | 9 | -2 | 18 | -3
